# In patent publication US20090238768A1, “MULTIMERIC MAGNETIC RESONANCE CONTRAST AGENTS” (priority 2005, published 2009):
# Like-named read-outs stand apart in the source and are kept apart here.
# Tests used:
# [1] = longitudinal relaxivity rl in human blood plasma at 37° C.; assay type: physicochemical; details: for longitudinal relaxivity rl calculated for a field of 3 T: calculated from the measurements at lower fields
# Description: Compound 23 was dissolved in human blood plasma and the longitudinal relaxivity rl was measured at 37° C. at the following fields:
# Compound 13 was dissolved in human blood plasma and the longitudinal relaxivity rl was measured at 37° C. at the following fields:
# Compound 36 was dissolved in human blood plasma and the longitudinal relaxivity rl was measured at 37° C. at the following fields:
# Compound 40 was dissolved in human blood plasma and the longitudinal relaxivity rl was measured at 37° C. at the following fields:
# Compound 43 was dissolved in human blood plasma and the longitudinal relaxivity rl was measured at 37° C. at the following fields:
# Compound 46 was dissolved in human blood plasma and the longitudinal relaxivity rl was measured at 37° C. at the following fields: […]
# [2] = 3 T, human blood plasma, 37° C., published data; cited from earlier work
Molecule,longitudinal relaxivity rl ([1]; 0.235 T) [mM^1s^1],longitudinal relaxivity rl ([1]; 0.47 T) [mM^1s^1],longitudinal relaxivity rl ([1]; 1.41 T) [mM^1s^1],longitudinal relaxivity rl calculated for a field of 3 T ([1]; 3 T) [mM^1s^1],also measured
"Cc1c(C(=O)N(C)c2cccc(NC(=O)CN3CCN4CCN5CCN(CC3)CC(=O)[O][Gd]([O]C(=O)C4)[O]C(=O)C5)c2)c(C)c(C(=O)N(C)c2cccc(NC(=O)CN3CCN4CCN5CCN(CC3)CC(=O)[O][Gd]([O]C(=O)C4)[O]C(=O)C5)c2)c(C)c1C(=O)N(C)c1cccc(NC(=O)CN2CCN3CCN4CCN(CC2)CC(=O)[O][Gd]([O]C(=O)C3)[O]C(=O)C4)c1 [Compound 36, gadolinium derivative of 2,4,6-trimethylbenzene-1,3,5-tris-[(DO3A-(3-acetamidophenyl))-N-methyl-carboxamide]]",9.3,8.8,7.3,8.5,
Cc1c(C(=O)N(C)c2cccc(NC(=O)C(C)N3CCN4CCN5CCN(CC3)CC(=O)[O][Gd]([O]C(=O)C5)[O]C(=O)C4)c2)c(C)c(C(=O)N(C)c2cccc(NC(=O)C(C)N3CCN4CCN5CCN(CC3)CC(=O)[O][Gd]([O]C(=O)C5)[O]C(=O)C4)c2)c(C)c1C(=O)N(C)c1cccc(NC(=O)C(C)N2CCN3CCN4CCN(CC2)CC(=O)[O][Gd]([O]C(=O)C4)[O]C(=O)C3)c1 (stereo not shown) [Compound 40],10.1,8.6,9.1,9,
Cc1c(C(=O)N(C)c2cccc(N(C)C(=O)C(C)N3CCN4CCN5CCN(CC3)CC(=O)[O][Gd]([O]C(=O)C5)[O]C(=O)C4)c2)c(C)c(C(=O)N(C)c2cccc(N(C)C(=O)C(C)N3CCN4CCN5CCN(CC3)CC(=O)[O][Gd]([O]C(=O)C5)[O]C(=O)C4)c2)c(C)c1C(=O)N(C)c1cccc(N(C)C(=O)C(C)N2CCN3CCN4CCN(CC2)CC(=O)[O][Gd]([O]C(=O)C4)[O]C(=O)C3)c1 (stereo not shown) [Compound 46],10.9,10.1,8.9,9,
CNC[C@H](O)[C@@H](O)[C@H](O)[C@H](O)CO.CNC[C@H](O)[C@@H](O)[C@H](O)[C@H](O)CO.O=C([O-])CN(CCN(CC(=O)[O-])CC(=O)O)CCN(CC(=O)[O-])CC(=O)O.[Gd+3] [Magnevist],,,,,longitudinal relaxivity rl [2]: 3.3 mM^1s^1
CNC[C@H](O)[C@@H](O)[C@H](O)[C@H](O)CO.CNC[C@H](O)[C@@H](O)[C@H](O)[C@H](O)CO.O=C([O-])CN(CCN(CC(=O)[O-])CC(=O)O)CCN(CC(=O)O)C(COCc1ccccc1)C(=O)[O-].[Gd+3] (stereo not shown) [Multihance],,,,,longitudinal relaxivity rl [2]: 6.3 mM^1s^1
"gadolinium derivative of 1,3,5-tris-(N-(DO3A-acetamido)-N-methyl-4-amino-2-methyl-phenyl)-[1,3,5]triazinane-2,4,6-trione [Compound 23]",,,,,longitudinal relaxivity rl ([1]; 0.25 T): 10.7 mM⁻¹ s⁻¹; longitudinal relaxivity rl ([1]; 1.5 T): 11.6 mM^1s^1; longitudinal relaxivity rl ([1]; 2.35 T): 10.1 mM^1s^1; longitudinal relaxivity rl ([1]; 3 T): 9.9 mM^1s^1
"gadolinium derivative of 2,4,6-trimethylbenzene-1,3,5-tris-[N-methyl-((2-DO3A-propyl)-3-(N′-methyl-amidophenyl))-carboxamide)] [Compound 43]",12,10.6,9,8.2,
"gadolinium derivative of benzene-1,3,5-tris-[((DO3A-acetamido)-3-(N′-methylamido-phenyl))-carboxamide)] [Compound 13]",,,,9.0,longitudinal relaxivity rl ([1]; 1.5 T): 9.2 mM^1s^1; longitudinal relaxivity rl ([1]; 2.35 T): 9.5 mM^1s^1
